Results taken from patent publication US12558405B2, “Pharmaceutical composition using endogenous cells for preventing or treating musculoskeletal disorders” (SEOUL NATIONAL UNIVERSITY R&DB FOUNDATION, priority 2019, dated 2026).

B1: G-CSF: positive control of chemotaxis, 100 ng/mL (protein, UniProt P09919 31-207, looked up)
Granulocyte …: TPLGPASSLPQSFLLKCLEQVRKIQGDGAALQEKLVSECATYKLCHPEELVLLGHSLGIPWAPLSSCPSQALQLAGCLSQLHSGLFLYQGLLQALEGISPELGPTLDTLQLDVADFATTIWQQMEELGMAPALQPTQGAMPAFASAFQRRAGGVLVASHLQSFLEVSYRVLRHLAQP

Tests used:
bone marrow stem cells [1] = experiment: Chemotaxis of stem cells, Boyden chamber assay; type: cell-based; conditions: 24 hours; control group (antibiotic) = 100.00; composition 10% of medium volume, positive controls 100 ng/mL
Procedure: 1×10^4 bone marrow stem cells were seeded onto an upper insert of a transwell and cultured for 24 hours in LG DMEM containing an antibiotic (HyClone, Thermo Fisher Scientific Inc., Waltham, MA, USA). […] LG DMEM not containing FBS was used as a negative control group, and G-CSF 100 ng/mL, SDF-1α 100 ng/mL and IL-1β 100 ng/mL were compared as positive control groups of chemotaxis. In order to count the cells that migrated from the insert to the bottom, the cells remaining on the insert was removed 24 hours later and only the cells at the bottom were left. After fixing with 4% paraformaldehyde and staining with crystal violet, the cells were observed under a microscope. For quantification of the cells that migrated to the bottom, OD540 was measured after dissolving the crystal violet with acetic acid. All experiments were repeated 3 times.

bone marrow stem cells [2] = experiment: Chemotaxis of stem cells, agarose chemotaxis assay; type: cell-based; conditions: 72 hours; control group (antibiotic) = 100.00; composition 50% of medium volume, positive controls 100 ng/mL
Procedure: First, after preparing 0.8% agarose gel on a 6-well plate, three holes were perforated in each well with intervals of 5 mm using a 5-mm skin biopsy punch. 1×10^4 bone marrow stem cells were dispensed into LG DMEM containing 10% FBS and an antibiotic at the center. After waiting for 5 hours until the cells were attached, the medium was replaced with LG DMEM containing the antibiotic only. […] In addition, G-CSF 100 ng/mL, SDF-1α 100 ng/mL and IL-1β 100 ng/mL were treated for comparison as positive control groups of chemotaxis. 72 hours later, the cells were fixed with 4% paraformaldehyde, stained with DAPI and observed with a fluorescence microscope. The cells that migrated to the left and right sides were imaged with the fluorescence microscope. The number of cells that migrated 100 μm or longer from the end of each hole was counted. All experiments were repeated 3 times.

Row | Molecule | Number of migrated cells (bone marrow stem cells [1]) | Number of migrated cells (bone marrow stem cells [2])
1 | IL-1β: positive control of chemotaxis, 100 ng/mL | 358.85 ± 271.58 | 314.13 ± 220.72
2 | SDF-1α: positive control of chemotaxis, 100 ng/mL | 365.28 ± 280.55 | 466.68 ± 348.04
3 | B1 | 415.01 ± 338.54 | 393.76 ± 280.52
